The test system of one test is B16 melanoma cells. Kind of test: Intracellular uptake of gadolinium complexes (ICP-MS). In kind it is cell-based, mouse. The note with it: 24-h incubation; for intracellular uptake of gadolinium complex: B16 melanoma cells, 10 μM. The method, then:
Cell culture. B16 melanoma cells (mouse) and MH3924A Morris hepatoma cells (rat) were obtained from the German Cancer Research Center (DKFZ) tumor bank and grown at 37° C. as stock cultures in RPMI 1640 supplemented with 10% fetal calf serum and 1% glutamine as standard medium under a 5% CO2 atmosphere (all components: Pan Biotech GmbH, Aidenbach, Germany). For contrast agent uptake studies 10^6 cells were inoculated into 25 cm^2 culture flasks (BD Biosciences, Bedford, USA) and grown for 24 h in 10 mL of the standard culture medium. Cells were then incubated for an additional 24 h (1 h for temperature dependence studies) with fresh medium containing 0, 1, 2.5, 5 or 10 μM of the selected gadolinium complex (three replicate flasks for each incubation). Afterwards the medium was removed, cells were trypsinated, washed twice, resuspended in culture medium and counted (typical yields: 3.5-6 million cells). For comparison 2.5×10^5 human melanocytes (Promo Cell, Heidelberg, Germany) were incubated for 24 h with melanocyte growth medium (Promo Cell, Heidelberg, Germany) containing 0, 1, 2.5, 5 or 10 μM of the selected gadolinium complex (two replicate flasks for each incubation). The work up procedure was as described above typically yielding 2.5×10^5 cells. Cultured human hepatocytes (Cytonet GmbH, Weinheim, Germany) embedded in a collagen matrix in a 12 well microtiter plate, with 6×10^5 viable cells per well were incubated for 24 h in hepatocyte growth medium (Cytonet GmbH, Weinheim, Germany) containing the same concentration series of selected gadolinium complexes. Afterwards the medium was removed, cells were separated using collagenase (Roche Diagnostics, Mannheim, Germany). After digestion the cells were washed twice with PBS, resuspended in culture medium and counted (typical yields: 6×10^5 cells per tube). The intracellular gadolinium content was determined by ICP-MS as described below.
(§1) ICP-MS. Samples containing the above mentioned number of harvested cells were digested with 50% concentrated HNO3 (Superselect; Merck, Darmstadt, Germany) under microwave heating with a Mars 5 apparatus (CEM GmbH, Kamp-Lintfort, Germany). To each sample 100 μL of an aqueous solution of rhodium chloride (1 μg/mL) were added so that Rh-103 could be used as an internal quantification standard. Gd-160 measurements were performed with the ICP-MS instrument mentioned above. The gadolinium concentrations were determined using standard curves created prior to cell analyses. For each uptake incubation condition triplicate cell samples were analyzed, and Gd content for each sample was recorded as the mean of two MS determinations.
Intracellular Uptake of Gadolinium Complexes. B16 melanoma and MH3924A hepatoma cells as well as human melanocytes and hepatocytes were incubated for 24 h in the presence of the gadolinium complexes shown in FIG. 1, using concentrations in the range of 1-10 μM. Incubations with the unsubstituted [Gd(DTPA)(H2O)]^2−complex (Magnevist®) served as controls. Following cell harvest and hydrolysis, inductively coupled plasma mass spectrometry (ICP-MS) with direct detection of gadolinium was used to quantitate complex uptake (triplicate cultures for each incubation).
Cell Uptake Studies. A493 (human kidney), B16 melanoma cells (mouse), HeLa (human cervix), MCF-7 (human breats), MH3924A (Morris hepatoma) cells (rat) and 3T3 NIH (mouse fibroblasts) were obtained from the DKFZ tumor cell collection. 3×10^6 cells of each cell type were grown for 24 hours in culture flasks. Afterwards they were incubated for 1 hour in 10 mL culture media containing 0, 10, 50 and 100 μM of Gd-2.2. Gd-3.2 or Gd-4.2. Afterwards the medium was removed, the cells were trypsinated, washed twice, resuspended in culture medium and counted. The gadolinium uptake was determined in triplicate. […] cells were incubated with 0, 1, 2.5, 5 and 10 μM of the Gd-1.2. and Gd-5.2. for 24 h. […]

A further test relates to MH3924A cells. Kind of test: Subcellular distribution. The test is classed as cell-based, rat. Particulars: 100 μM, 24 h, 37° C. The method, then: Subcellular distribution. 5×10^6 MH3924A cells were grown in 25 cm^2 culture flasks (BD Biosciences, Bedford, USA) for 24 h in 10 mL of the standard culture medium. Cells were then incubated for an additional 24 h with 100 μM Gd-5.1. Afterwards the medium was removed, cells were trypsinated. Then the organelles were isolated with the Subcellular Proteome Extraction Kit ProteoExtract® (Merck, Darmstadt, Germany) according to the instructions of the manufacturer. Four fractions were obtained: Cytosol, membrane organelles (mainly mitochondria), nucleus and cytoskeleton (with associated endosomes and lysosomes). The gadolinium content for each fraction was determined by ICP-MS as described below.
as §1

The next test relates to human melanocytes. Put plainly: Intracellular uptake of gadolinium complexes (ICP-MS). The test is classed as cell-based. Particulars: 24-h incubation (FIG. 2C). The protocol:
Cell culture. B16 melanoma cells (mouse) and MH3924A Morris hepatoma cells (rat) were obtained from the German Cancer Research Center (DKFZ) tumor bank and grown at 37° C. as stock cultures in RPMI 1640 supplemented with 10% fetal calf serum and 1% glutamine as standard medium under a 5% CO2 atmosphere (all components: Pan Biotech GmbH, Aidenbach, Germany). For contrast agent uptake studies 10^6 cells were inoculated into 25 cm^2 culture flasks (BD Biosciences, Bedford, USA) and grown for 24 h in 10 mL of the standard culture medium. […] Afterwards the medium was removed, cells were trypsinated, washed twice, resuspended in culture medium and counted (typical yields: 3.5-6 million cells). […] After digestion the cells were washed twice with PBS, resuspended in culture medium and counted (typical yields: 6×10^5 cells per tube). The intracellular gadolinium content was determined by ICP-MS as described below.
ICP-MS. […] To each sample 100 μL of an aqueous solution of rhodium chloride (1 μg/mL) were added so that Rh-103 could be used as an internal quantification standard. […] The gadolinium concentrations were determined using standard curves created prior to cell analyses. For each uptake incubation condition triplicate cell samples were analyzed, and Gd content for each sample was recorded as the mean of two MS determinations.

Consider `NCCN(CCN)C(=O)CN(CCN(CCN(CC(=O)[O-])CC(=O)N(CCN)CCN)CC(=O)[O-])CC(=O)[O-].[Gd+3]` [Gd-5.1], for which the “intracellular uptake of gadolinium complex” value in the test with B16 melanoma cells is reported as 0.027±0.002 fmol/cell. Besides, in the test on MH3924A cells, the “subcellular concentration, cytoplasma” value is 0.026 fmol/cell; the “subcellular concentration, cytoskeleton fraction” value is reported as 0.065 fmol/cell; the “subcellular concentration, nucleus” value was 0.015 fmol/cell.
Take `NCCCCN(CCCN)C(=O)CN(CCN(CCN(CC(=O)[O-])CC(=O)N(CCCN)CCCCN)CC(=O)[O-])CC(=O)[O-].[Gd+3]` [Gd-6.1]: the “factor of higher uptake into B16 melanoma versus human melanocytes” value in the test on human melanocytes is reported as around 2.
For `CCN(CC)CCNC(=O)CN(CCN(CCN(CC(=O)[O-])CC(=O)N(CCN)CCN)CC(=O)[O-])CC(=O)[O-].[Gd+3]` [Gd-3.1], the “fold increase in intracellular accumulation versus complex of ligand 2.1” value in the test with B16 melanoma cells (cell line not stated) is reported as 2.87. For the same compound, the “intracellular uptake of gadolinium complex” value in the test with B16 melanoma cells worked out at 0.082±0.004 fmol/cell.

(Values after patent US20070202047A1, “Polyamine-substituted ligands for use as contrast agents” (priority 2006, published 2007).)
